Results reported in patent publication US20230130066A1, “USE OF CYCLODEXTRINS IN DISEASES AND DISORDERS INVOLVING PHOSPHOLIPID DYSREGULATION” (priority 2017, published 2023).
“And” between values parts separate entries of the source, which are not always exact repeats. Equal values may be shown once. Read-outs that look alike come from different tables or passages of the source. Marks after values point to notes of the source that are not given here.

Legend:
[1] = randomized n-of-1 dose escalation study: excretion of phospholipids into urine after oral administration; format: in vivo, human; conditions: for Excretion of phospholipids into urine, adj (expected level in healthy subjects subtracted) / Excretion of phospholipids into urine, adj per g dose / Excretion of phospholipids into urine, avg / Excretion of phospholipids into urine, single measurements: within 8 h
Description: An randomized n-of-1 dose escalation study was conducted to assess the activity of a clathrate of HP-α-CD and sodium caprate (C-10 fatty acid, capric acid, decanoic acid) in extracting phospholipids from serum into urine.

[2] = randomized blinded n-of-1 PK/PD study: FPLC of morning urine; format: in vivo; conditions: oral intake in the evening
Source text: The substances compared were • HP-α-CD, • the HP-α-CD/sodium caprate clathrate • a mixture of the HP-α-CD clathrate with the same amount of sodium caprate clathrate, also known as C-10 fatty acid, capric acid, decanoic acid. • a mixture of the HP-α-CD clathrate with the oily suspension proposed by (Tuvia S, Pelled D, et al. (2014) Pharmaceutical Research 31:2010-21).
Six samples per substance were taken.
The samples were taken in the evening before bed-time and urine samples were taken
Unexpectedly, however, PA (675) and SM (650) are not reduced and neither are lyso-phospholipids (460-550).

BCa = BCa mice: tumor volume by treatment; format: in vivo; conditions: Day*Treatment effect
[3] = cited from earlier work
BBB = conditions: cited from earlier work
[4] = tested on: unesterified cholesterol (UC) storage; conditions: 3-week-old Npc1-/- mice, dorsal neocortex, filipin; cited from earlier work
Caco-2 cells = conditions: Caco-2 cells; cited from earlier work
[5] = 12 mM cyclodextrin, 5 μM A2E, blue-light irradiation or 1 d in the dark; cited from earlier work
APP = conditions: AD mouse cells; cited from earlier work
[6] = even in the relative absence of cholesterol; cited from earlier work
[7] = target: BC resistance protein (BCRP/ABCG2) (Homo sapiens, UniProt Q9UNQ0); conditions: cited from earlier work
Chain of BC resistance protein (BCRP/ABCG2) (Q9UNQ0 whole entry): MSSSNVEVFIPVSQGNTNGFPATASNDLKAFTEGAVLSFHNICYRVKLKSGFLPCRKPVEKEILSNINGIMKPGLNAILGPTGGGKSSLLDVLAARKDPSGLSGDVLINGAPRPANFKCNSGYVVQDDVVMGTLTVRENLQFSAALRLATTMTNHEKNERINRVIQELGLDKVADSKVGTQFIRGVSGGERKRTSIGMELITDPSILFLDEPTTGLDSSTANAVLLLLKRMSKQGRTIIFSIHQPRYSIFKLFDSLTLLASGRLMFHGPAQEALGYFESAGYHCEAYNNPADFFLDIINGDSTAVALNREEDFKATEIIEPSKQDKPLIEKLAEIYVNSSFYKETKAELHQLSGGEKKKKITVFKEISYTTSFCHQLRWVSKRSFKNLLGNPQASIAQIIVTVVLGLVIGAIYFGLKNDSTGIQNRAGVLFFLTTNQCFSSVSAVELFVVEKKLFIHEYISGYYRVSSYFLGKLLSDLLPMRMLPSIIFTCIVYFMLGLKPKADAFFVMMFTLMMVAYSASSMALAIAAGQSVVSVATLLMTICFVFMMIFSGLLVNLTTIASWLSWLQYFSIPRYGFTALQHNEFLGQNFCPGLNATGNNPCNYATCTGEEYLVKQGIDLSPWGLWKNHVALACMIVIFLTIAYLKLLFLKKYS

[8] = tested on: H7 Lewis lung cancer cell lines; conditions: three H7 Lewis lung cancer cell lines; cited from earlier work
[9] = tested on: MDA-MB-241 and ZR751 BC cells; conditions: cited from earlier work
MCF7 BC cells = conditions: cited from earlier work
Aβ = conditions: rat hippocampal neurons infected with SFV carrying APP; cited from earlier work
[10] = tested on: H7-O Lewis lung cancer cells; conditions: mice implanted with H7-O Lewis lung cancer cells; cited from earlier work
[11] = tested on: primary effusion lymphoma (PEL); conditions: mice; cited from earlier work
BC = conditions: in vivo; cited from earlier work
MDA-MB-231 BC cells = conditions: independently of cholesterol; cited from earlier work
NPC cells = conditions: cited from earlier work
a-syn = target: T1, a-syn (Homo sapiens, UniProt P37840); conditions: transfected cells, immunoblot; cited from earlier work
T1 construct: expressed in transfected cells

α-synuclein [12] = target: T2, α-synuclein (Homo sapiens, UniProt P37840); set-up: expressed in transfected cells; host or cells: HeLa cells; conditions: HeLa cells, 20 mM, 1 hr; cited from earlier work
α-synuclein [13] = target: T2, α-synuclein; set-up: from tissue; host or cells: brain of hα-syn transgenic mice; conditions: mice; cited from earlier work

Substance: 2-hydroxypropyl-α-cyclodextrin [HP-α-CD]
- Excretion of phospholipids into urine, adj (expected level in healthy subjects subtracted) ([1]; oral dose 18 g): 1.05 mM
- Excretion of phospholipids into urine, adj per g dose ([1]; oral dose 18 g): 0.06 mM/g
- Excretion of phospholipids into urine, avg ([1]; oral dose 18 g): 3.87 mM
- Excretion of phospholipids into urine, single measurements ([1]; oral dose 18 g): 3.8 mM and 3.5 mM and 4.3 mM
- Excretion of phospholipids into urine, adj (expected level in healthy subjects subtracted) ([1]; oral dose 22 g): 2.11 mM
- Excretion of phospholipids into urine, adj per g dose ([1]; oral dose 22 g): 0.10 mM/g
- Excretion of phospholipids into urine, avg ([1]; oral dose 22 g): 4.93 mM
- Excretion of phospholipids into urine, single measurements ([1]; oral dose 22 g): 5.2 mM and 4.4 mM
- Excretion of phospholipids into urine, adj (expected level in healthy subjects subtracted) ([1]; oral dose 26 g): 4.05 mM
- Excretion of phospholipids into urine, adj per g dose ([1]; oral dose 26 g): 0.16 mM/g
- Excretion of phospholipids into urine, avg ([1]; oral dose 26 g): 6.87 mM
- Excretion of phospholipids into urine, single measurements ([1]; oral dose 26 g): 7.2 mM and 6.3 mM and 7.1 mM
- Excretion of phospholipids into urine, adj (expected level in healthy subjects subtracted) ([1]; oral dose 30 g): 4.65 mM
- Excretion of phospholipids into urine, adj per g dose ([1]; oral dose 30 g): 0.15 mM/g
- Excretion of phospholipids into urine, avg ([1]; oral dose 30 g): 7.47 mM
- Excretion of phospholipids into urine, single measurements ([1]; oral dose 30 g): 7.5 mM and 6.8 mM and 8.1 mM
- Excretion of phospholipids into urine, adj (expected level in healthy subjects subtracted) ([1]; oral dose 36 g): 5.75 mM
- Excretion of phospholipids into urine, adj per g dose ([1]; oral dose 36 g): 0.16 mM/g
- Excretion of phospholipids into urine, avg ([1]; oral dose 36 g): 8.57 mM
- Excretion of phospholipids into urine, single measurements ([1]; oral dose 36 g): 8.2 mM and 8.8 mM and 8.7 mM
- Excretion of phospholipids into urine, adj (expected level in healthy subjects subtracted) ([1]; oral dose 44 g): 4.88 mM
- Excretion of phospholipids into urine, adj per g dose ([1]; oral dose 44 g): 0.11 mM/g
- Excretion of phospholipids into urine, avg ([1]; oral dose 44 g): 7.70 mM
- Excretion of phospholipids into urine, single measurements ([1]; oral dose 44 g): 8.0 mM and 7.6 mM and 7.5 mM
- side effect observed ([1]; oral, only at the highest (44 g) dose): softening of stool
- recovery of HP-α-CD from morning urine (resorption) [2]: not excreted
- Tumor Volume (BCa): effective
- Solubility in water ([3]; Table 1): >500 g/L
- Solubility in water ([3]; Table 3): ~500^a g/l
- BBB breakdown (BBB): 2.5 mM
- UC storage in brain cells [4]: clearly reduced
- cytotoxicity (Caco-2 cells): less cytotoxic than α-CD

Substance: methyl-β-cyclodextrin [MβCD]
- toxicity on BBB in vitro (BBB): similar
- protection of A2E against oxidation [5]: protect A2E against oxidation
- APPsα levels in the medium (APP): increased
- APPsβ levels in the medium (APP): did not change
- levels of intracellular APPsβ (APP): decrease
- levels of α secretase cleavage products C83 (APP): increase
- LPC or FFA mediated surfactant inhibition [6]: reversed
- decrease in activity of BC resistance protein (BCRP/ABCG2) [7]: 40%
- invasion activity [8]: suppressed invasion activity
- spheroid migration and invasion [9]: inhibited
- endocytosis and migration (MCF7 BC cells): inhibited
- secretion of Aβ (Aβ): inhibits secretion
- number of lung metastases [10]: reduced the number of lung metastases
- growth of primary effusion lymphoma (PEL) [11]: inhibited growth
- efficacy in a mouse model of BC (BC): effective
- internalization of exosomes containing integrins (MDA-MB-231 BC cells): inhibited
- cholesterol accumulation (NPC cells): most potent
- level of a-syn in the membrane fraction and detergent-insoluble fraction (a-syn): reduced the level of a-syn
- co-location of α-synuclein with the cell membrane (α-synuclein [12]): dramatically reduced
- accumulation of α-synuclein in neuronal cell body and synapses (α-synuclein [13]): reduced accumulation
